Source: the supplement of paper PMC10307832

How the values were obtained:
Assay in all cases: relative viability (nuclei count vs DMSO), 5 days (fraction); higher = more cells survive
Metformin + Tozasertib = compound: CN(C)C(=N)NC(=N)N [Metformin] + Cc1cc(Nc2cc(N3CCN(C)CC3)nc(Sc3ccc(NC(=O)C4CC4)cc3)n2)n[nH]1 [Tozasertib] (partner 0.1 µM)
Summary of the method: (§1)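 Relative viability equals treated-well nuclei counts divided by vehicle-well nuclei counts. Counts came from 4× images of lung cancer cell lines grown in 1536-well plates for 5 days after pin-tool dosing on the day after seeding. Dosing used one drug alone or a fixed anchor-drug dose plus five library-drug doses (not always all listed) in √10 steps, and values are medians of duplicate plates.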

Apatinib + Palbociclib = compound: N#CC1(c2ccc(NC(=O)c3cccnc3NCc3ccncc3)cc2)CCCC1 [Apatinib] + CC(=O)c1c(C)c2cnc(Nc3ccc(N4CCNCC4)cn3)nc2n(C2CCCC2)c1=O [Palbociclib] (partner 0.5 µM)
Summary of the method: as §1

Apatinib + Navitoclax = compound: N#CC1(c2ccc(NC(=O)c3cccnc3NCc3ccncc3)cc2)CCCC1 [Apatinib] + CC1(C)CCC(c2ccc(Cl)cc2)=C(CN2CCN(c3ccc(C(=O)NS(=O)(=O)c4ccc(N[C@H](CCN5CCOCC5)CSc5ccccc5)c(S(=O)(=O)C(F)(F)F)c4)cc3)CC2)C1 [Navitoclax] (partner 0.5 µM)
Summary of the method: as §1

Apatinib + Linsitinib = compound: N#CC1(c2ccc(NC(=O)c3cccnc3NCc3ccncc3)cc2)CCCC1 [Apatinib] + C[C@]1(O)C[C@@H](c2nc(-c3ccc4ccc(-c5ccccc5)nc4c3)c3c(N)nccn32)C1 [Linsitinib] (partner 1 µM)
Summary of the method: as §1

| Cell Line | relative viability (Metformin + Tozasertib; first compound 10 µM) | relative viability (Metformin + Tozasertib; first compound 31.62 µM) | relative viability (Metformin + Tozasertib; first compound 100 µM) | relative viability (Metformin + Tozasertib; first compound 316.23 µM) | relative viability (Metformin + Tozasertib; first compound 1000 µM) | relative viability (Apatinib + Palbociclib; first compound 0.08 µM) | relative viability (Apatinib + Palbociclib; first compound 0.253 µM) | relative viability (Apatinib + Palbociclib; first compound 0.8 µM) | relative viability (Apatinib + Palbociclib; first compound 2.53 µM) | relative viability (Apatinib + Palbociclib; first compound 8 µM) | relative viability (Apatinib + Navitoclax; first compound 0.08 µM) | relative viability (Apatinib + Navitoclax; first compound 0.253 µM) | relative viability (Apatinib + Navitoclax; first compound 0.8 µM) | relative viability (Apatinib + Navitoclax; first compound 2.53 µM) | relative viability (Apatinib + Navitoclax; first compound 8 µM) | relative viability (Apatinib + Linsitinib; first compound 0.08 µM) | relative viability (Apatinib + Linsitinib; first compound 0.253 µM) | relative viability (Apatinib + Linsitinib; first compound 0.8 µM) | relative viability (Apatinib + Linsitinib; first compound 2.53 µM) | relative viability (Apatinib + Linsitinib; first compound 8 µM) |
| --- | --- | --- | --- | --- | --- | --- | --- | --- | --- | --- | --- | --- | --- | --- | --- | --- | --- | --- | --- | --- |
| NCI-H23 | 0.382 | 0.49 | 0.433 | 0.445 | 0.498 | 0.561 | 0.57 | 0.575 | 0.409 | 0.424 | 1.01 | 0.931 | 0.742 | 0.725 | 0.794 | 0.694 | 0.652 | 0.501 | 0.568 | 0.542 |
| NCI-H647 | 0.244 | 0.293 | 0.349 | 0.456 | 0.307 | 0.516 | 0.451 | 0.336 | 0.384 | 0.303 | 1.3 | 1.29 | 1.04 | 0.975 | 0.779 | 1.32 | 1.18 | 1.01 | 1.04 | 1.02 |
| LXF-289 | 0.191 | 0.179 | 0.206 | 0.174 | 0.19 | 0.594 | 0.593 | 0.567 | 0.568 | 0.562 | 0.948 | 0.925 | 0.95 | 0.82 | 0.882 | 0.974 | 0.964 | 0.96 | 0.941 | 0.896 |
| PC-3 [JPC-3] | 0.772 | 0.811 | 0.853 | 0.779 | 0.825 |  | 0.555 | 0.557 | 0.516 | 0.53 | 0.785 | 0.764 | 0.746 | 0.816 | 0.737 | 0.98 | 0.961 | 0.885 | 0.797 | 0.894 |
| UMC-11 | 0.211 | 0.188 | 0.202 | 0.2 | 0.209 | 0.322 | 0.326 | 0.278 | 0.31 | 0.323 | 0.343 | 0.335 | 0.319 | 0.247 | 0.266 | 0.999 | 1.01 | 0.979 | 0.911 | 0.93 |
| H3255 | 0.603 | 0.551 | 0.615 | 0.562 | 0.592 | 0.339 | 0.306 | 0.319 | 0.305 | 0.285 | 0.512 | 0.62 | 0.34 | 0.52 | 0.607 | 1.17 | 0.819 | 0.954 | 0.896 | 0.836 |
| NCI-H1651 | 0.751 | 0.847 | 0.86 | 0.728 | 0.976 | 0.516 | 0.522 | 0.489 | 0.514 | 0.459 | 1.02 | 1.22 | 0.97 | 0.928 | 0.867 | 1.13 | 1.13 | 0.895 | 0.91 | 0.784 |
| SK-MES-1 | 0.624 | 0.693 | 0.75 | 0.662 | 0.771 | 0.335 | 0.323 | 0.282 | 0.292 | 0.278 | 1.25 | 1.17 | 1.24 | 1.14 | 0.965 | 1.13 | 0.975 | 1.1 | 1.07 | 0.942 |
| NCI-H1355 | 0.613 | 0.654 | 0.684 | 0.504 | 0.757 | 0.379 | 0.394 | 0.367 | 0.378 | 0.366 | 0.944 | 0.929 | 0.848 | 0.815 | 0.65 | 0.97 | 0.863 | 0.802 | 0.685 | 0.666 |
| HOP-62 | 0.283 | 0.373 | 0.316 | 0.285 | 0.289 | 0.441 | 0.366 | 0.377 | 0.361 | 0.219 | 1.04 | 1.01 | 1.01 | 0.859 | 0.878 | 1.19 |  | 0.896 | 0.821 | 0.786 |
| HCC-366 | 0.142 | 0.141 | 0.111 | 0.135 | 0.163 | 0.484 | 0.378 | 0.373 | 0.334 | 0.306 | 1.1 | 1.08 | 1.04 | 0.961 | 1.01 | 0.899 | 0.732 | 0.571 | 0.678 | 0.616 |
| BEN | 0.476 | 0.494 | 0.439 | 0.516 | 0.395 | 0.521 | 0.453 | 0.466 | 0.478 | 0.407 | 0.0553 | 0.0606 | 0.0462 | 0.0661 | 0.0637 | 0.864 | 0.933 | 0.88 | 0.81 | 0.699 |
| NCI-H520 | 0.462 | 0.496 | 0.463 | 0.498 | 0.469 | 0.227 | 0.238 | 0.25 | 0.197 | 0.214 | 1.21 | 1.14 | 0.982 | 1.02 | 0.857 | 1.12 | 0.948 | 0.842 | 0.876 | 0.878 |
| NCI-H2023 | 0.32 | 0.413 | 0.479 | 0.301 | 0.324 | 0.381 | 0.402 | 0.354 | 0.376 | 0.307 | 0.988 | 1.01 | 0.954 | 0.925 | 0.895 | 0.816 | 0.886 | 0.615 | 0.683 | 0.607 |
| NCI-H1793 | 0.459 |  | 0.5 | 0.469 | 0.588 | 0.35 | 0.284 | 0.349 | 0.264 | 0.27 | 0.343 | 0.712 | 0.441 | 0.29 | 0.283 | 0.974 | 0.931 | 0.716 | 0.599 | 0.685 |
| NCI-H838 | 0.28 | 0.296 | 0.349 | 0.312 | 0.258 | 0.229 | 0.261 | 0.206 | 0.215 | 0.217 | 1.25 | 1.27 | 1.09 | 1.12 | 1.05 | 1.14 | 1.18 | 0.962 | 0.985 | 1.04 |
